Measured values: ChEMBL document CHEMBL3351757, “Design and synthesis of novel and highly-active pan-histone deacetylase (pan-HDAC) inhibitors” (Bioorg Med Chem, 2014)

Columns and labels:
Histone deacetylase 1 = Histone deacetylase 1 (Homo sapiens, UniProt Q13547); test: Inhibition of human HDAC1 pre-incubated for 30 mins before substrate addition and measured after 30 mins by HDAC-Glo I/II assay
Histone deacetylase 2 = Histone deacetylase 2 (Homo sapiens, UniProt Q92769); test: Inhibition of human HDAC2 pre-incubated for 30 mins before substrate addition and measured after 30 mins by HDAC-Glo I/II assay
Sequence of Histone deacetylase 2 (Q92769 whole entry): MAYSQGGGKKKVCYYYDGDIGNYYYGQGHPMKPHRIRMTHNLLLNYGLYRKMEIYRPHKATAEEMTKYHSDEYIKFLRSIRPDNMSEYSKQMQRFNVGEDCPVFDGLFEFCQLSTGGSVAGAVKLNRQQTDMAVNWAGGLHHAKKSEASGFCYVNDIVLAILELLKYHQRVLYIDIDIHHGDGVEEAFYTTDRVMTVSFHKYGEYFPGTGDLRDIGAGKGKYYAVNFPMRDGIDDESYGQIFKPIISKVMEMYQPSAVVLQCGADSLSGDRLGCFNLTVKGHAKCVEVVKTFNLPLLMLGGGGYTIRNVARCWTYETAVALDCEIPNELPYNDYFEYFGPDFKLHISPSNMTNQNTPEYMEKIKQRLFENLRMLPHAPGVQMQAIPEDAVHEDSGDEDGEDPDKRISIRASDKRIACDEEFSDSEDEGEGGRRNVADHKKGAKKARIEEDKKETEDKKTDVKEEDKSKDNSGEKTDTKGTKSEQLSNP

Histone deacetylase 3 = Histone deacetylase 3 (Homo sapiens, UniProt O15379); test: Inhibition of human HDAC3 pre-incubated for 30 mins before substrate addition and measured after 30 mins by HDAC-Glo I/II assay
Sequence of Histone deacetylase 3 (O15379 whole entry): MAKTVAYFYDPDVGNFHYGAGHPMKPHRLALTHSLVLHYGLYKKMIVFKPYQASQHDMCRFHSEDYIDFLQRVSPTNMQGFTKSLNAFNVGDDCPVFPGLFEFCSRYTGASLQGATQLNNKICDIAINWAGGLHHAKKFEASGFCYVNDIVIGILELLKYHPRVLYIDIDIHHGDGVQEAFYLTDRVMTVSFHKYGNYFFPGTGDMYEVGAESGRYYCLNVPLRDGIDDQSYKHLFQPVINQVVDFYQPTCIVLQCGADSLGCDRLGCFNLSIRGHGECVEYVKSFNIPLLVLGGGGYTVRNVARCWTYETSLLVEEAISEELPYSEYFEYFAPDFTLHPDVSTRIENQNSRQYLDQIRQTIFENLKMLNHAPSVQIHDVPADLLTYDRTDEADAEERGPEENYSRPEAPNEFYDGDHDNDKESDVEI

Histone deacetylase 8 = target: T1, Histone deacetylase 8 (Homo sapiens, UniProt Q9BY41); test: Inhibition of human HDAC8 pre-incubated for 30 mins before substrate addition and measured after 30 mins by HDAC-Glo I/II assay
T1 sequence (Q9BY41 whole entry): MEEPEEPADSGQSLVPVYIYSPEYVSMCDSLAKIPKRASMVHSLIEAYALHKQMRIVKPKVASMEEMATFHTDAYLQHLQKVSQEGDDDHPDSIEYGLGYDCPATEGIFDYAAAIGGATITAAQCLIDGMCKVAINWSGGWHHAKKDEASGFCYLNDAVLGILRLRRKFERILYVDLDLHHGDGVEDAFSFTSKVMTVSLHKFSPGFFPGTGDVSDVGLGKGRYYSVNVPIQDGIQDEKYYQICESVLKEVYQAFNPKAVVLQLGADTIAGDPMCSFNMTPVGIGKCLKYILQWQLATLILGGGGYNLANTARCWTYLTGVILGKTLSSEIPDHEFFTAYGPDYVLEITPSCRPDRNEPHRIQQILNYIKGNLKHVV

Histone deacetylase 4 = Histone deacetylase 4 (Homo sapiens, UniProt P56524); test: Inhibition of human HDAC4 pre-incubated for 30 mins before substrate addition and measured after 30 mins by HDAC-Glo I/II assay
Sequence of Histone deacetylase 4 (P56524 whole entry): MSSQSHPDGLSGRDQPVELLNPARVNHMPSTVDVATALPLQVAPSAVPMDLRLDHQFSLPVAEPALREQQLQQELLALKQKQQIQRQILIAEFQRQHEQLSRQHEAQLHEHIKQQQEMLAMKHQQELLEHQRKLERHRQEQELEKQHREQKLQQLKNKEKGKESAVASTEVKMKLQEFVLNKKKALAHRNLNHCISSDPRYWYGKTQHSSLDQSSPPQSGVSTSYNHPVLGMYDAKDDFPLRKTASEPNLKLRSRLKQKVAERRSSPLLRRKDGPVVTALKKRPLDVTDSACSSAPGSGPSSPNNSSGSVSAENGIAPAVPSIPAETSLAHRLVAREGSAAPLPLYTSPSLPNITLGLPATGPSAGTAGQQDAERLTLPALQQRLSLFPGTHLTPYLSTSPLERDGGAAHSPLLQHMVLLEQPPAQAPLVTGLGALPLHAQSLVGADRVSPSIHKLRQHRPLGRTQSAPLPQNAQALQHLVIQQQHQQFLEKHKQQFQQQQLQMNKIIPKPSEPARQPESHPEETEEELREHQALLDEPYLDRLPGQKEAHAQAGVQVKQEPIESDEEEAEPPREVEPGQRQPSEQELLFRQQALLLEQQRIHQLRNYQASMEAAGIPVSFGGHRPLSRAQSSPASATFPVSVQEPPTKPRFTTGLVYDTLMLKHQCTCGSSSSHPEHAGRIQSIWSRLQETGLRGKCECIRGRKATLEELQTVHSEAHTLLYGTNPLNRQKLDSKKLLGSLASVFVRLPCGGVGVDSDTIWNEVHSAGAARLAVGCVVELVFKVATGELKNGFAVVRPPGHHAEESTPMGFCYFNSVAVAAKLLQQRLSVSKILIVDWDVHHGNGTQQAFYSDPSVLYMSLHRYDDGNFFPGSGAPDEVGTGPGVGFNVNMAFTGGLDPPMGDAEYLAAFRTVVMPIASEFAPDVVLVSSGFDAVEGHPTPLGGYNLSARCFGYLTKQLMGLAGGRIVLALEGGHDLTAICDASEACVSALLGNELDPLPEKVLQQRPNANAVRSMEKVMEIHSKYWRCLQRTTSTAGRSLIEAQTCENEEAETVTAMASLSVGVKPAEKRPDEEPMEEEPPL

Histone deacetylase 9 = Histone deacetylase 9 (Homo sapiens, UniProt Q9UKV0); test: Inhibition of human HDAC9 pre-incubated for 30 mins before substrate addition and measured after 30 mins by HDAC-Glo I/II assay
Sequence of Histone deacetylase 9 (Q9UKV0 whole entry): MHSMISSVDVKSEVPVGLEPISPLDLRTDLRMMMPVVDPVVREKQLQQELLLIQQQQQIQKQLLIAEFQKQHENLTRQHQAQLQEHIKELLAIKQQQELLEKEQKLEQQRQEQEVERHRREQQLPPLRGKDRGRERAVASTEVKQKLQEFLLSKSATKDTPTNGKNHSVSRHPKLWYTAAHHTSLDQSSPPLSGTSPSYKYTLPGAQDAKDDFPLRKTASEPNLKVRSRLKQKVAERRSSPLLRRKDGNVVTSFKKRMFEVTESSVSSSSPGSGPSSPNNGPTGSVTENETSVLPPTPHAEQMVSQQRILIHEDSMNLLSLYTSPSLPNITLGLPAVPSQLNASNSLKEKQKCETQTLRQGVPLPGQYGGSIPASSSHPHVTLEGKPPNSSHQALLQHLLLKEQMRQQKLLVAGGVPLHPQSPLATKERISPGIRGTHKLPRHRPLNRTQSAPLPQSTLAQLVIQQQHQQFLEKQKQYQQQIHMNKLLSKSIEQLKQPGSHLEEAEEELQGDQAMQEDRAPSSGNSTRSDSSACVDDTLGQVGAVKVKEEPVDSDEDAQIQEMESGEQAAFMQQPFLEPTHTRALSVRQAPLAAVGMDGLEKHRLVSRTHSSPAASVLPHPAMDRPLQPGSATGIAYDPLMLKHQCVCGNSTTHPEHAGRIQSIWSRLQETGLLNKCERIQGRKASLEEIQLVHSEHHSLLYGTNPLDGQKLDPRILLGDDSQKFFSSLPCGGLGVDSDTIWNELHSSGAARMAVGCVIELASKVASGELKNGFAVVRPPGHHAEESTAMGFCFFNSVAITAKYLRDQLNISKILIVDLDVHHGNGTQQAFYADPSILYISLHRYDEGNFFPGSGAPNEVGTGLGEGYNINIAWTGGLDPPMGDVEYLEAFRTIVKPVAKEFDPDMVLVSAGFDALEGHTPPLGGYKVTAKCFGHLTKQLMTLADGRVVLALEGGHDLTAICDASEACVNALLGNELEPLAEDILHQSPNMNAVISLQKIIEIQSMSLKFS

[1] = target: T2, Protein deacetylase HDAC6 (Homo sapiens, UniProt Q9UBN7); test: Inhibition of human HDAC6 pre-incubated for 30 mins before substrate addition and measured after 30 mins by HDAC-Glo I/II assay
T2 sequence (Q9UBN7 whole entry): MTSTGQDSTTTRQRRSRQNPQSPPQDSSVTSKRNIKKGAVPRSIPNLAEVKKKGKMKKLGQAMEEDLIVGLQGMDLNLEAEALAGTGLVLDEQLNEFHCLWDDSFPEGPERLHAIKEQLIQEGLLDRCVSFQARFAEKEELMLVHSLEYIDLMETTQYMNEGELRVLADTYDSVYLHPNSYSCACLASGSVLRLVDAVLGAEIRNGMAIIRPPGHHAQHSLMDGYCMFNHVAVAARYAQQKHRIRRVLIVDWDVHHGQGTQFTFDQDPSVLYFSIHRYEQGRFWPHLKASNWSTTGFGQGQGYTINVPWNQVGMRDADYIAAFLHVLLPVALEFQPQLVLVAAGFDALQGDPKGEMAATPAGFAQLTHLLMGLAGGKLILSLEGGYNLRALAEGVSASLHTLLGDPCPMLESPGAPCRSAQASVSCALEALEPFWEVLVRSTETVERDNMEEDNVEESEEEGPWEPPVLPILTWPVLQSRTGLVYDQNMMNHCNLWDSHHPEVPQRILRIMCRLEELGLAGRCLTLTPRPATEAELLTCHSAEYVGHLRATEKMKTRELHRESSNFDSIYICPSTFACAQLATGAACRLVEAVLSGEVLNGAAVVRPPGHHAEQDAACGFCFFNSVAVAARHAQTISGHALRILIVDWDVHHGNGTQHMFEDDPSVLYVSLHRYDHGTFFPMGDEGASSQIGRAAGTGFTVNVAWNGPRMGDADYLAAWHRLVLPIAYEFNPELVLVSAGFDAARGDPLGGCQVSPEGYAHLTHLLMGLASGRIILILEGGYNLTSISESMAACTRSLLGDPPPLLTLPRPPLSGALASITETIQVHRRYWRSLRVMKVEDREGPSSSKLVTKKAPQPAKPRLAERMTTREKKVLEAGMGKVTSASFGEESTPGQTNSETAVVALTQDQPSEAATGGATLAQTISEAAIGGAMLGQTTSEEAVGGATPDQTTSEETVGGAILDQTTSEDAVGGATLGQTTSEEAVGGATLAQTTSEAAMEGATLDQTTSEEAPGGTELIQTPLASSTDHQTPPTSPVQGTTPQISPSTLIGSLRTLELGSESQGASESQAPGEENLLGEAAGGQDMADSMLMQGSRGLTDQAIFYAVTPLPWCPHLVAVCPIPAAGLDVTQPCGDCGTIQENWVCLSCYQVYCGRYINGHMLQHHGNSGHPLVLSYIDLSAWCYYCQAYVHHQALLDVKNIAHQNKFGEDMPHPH

[2] = target: T3, Histone deacetylase (Rattus norvegicus) (UniProt Q6P6W3+Q99P99+Q99P96+Q4QQW4+Q99P97+Q5RJZ2+B1WBY8); conditions: at 10 µM
Description: Inhibition of rat liver HDAC at 10 uM pre-incubated for 15 mins before Boc-Lys(Ac)-AMC substrate addition and measured after 30 mins by fluorometry

[3] = target: T3, Histone deacetylase (Rattus norvegicus); conditions: at 0.1 µM
Description: Inhibition of rat liver HDAC at 0.1 uM pre-incubated for 15 mins before Boc-Lys(Ac)-AMC substrate addition and measured after 30 mins by fluorometry

Sequence of Histone deacetylase 1 (Q13547 whole entry): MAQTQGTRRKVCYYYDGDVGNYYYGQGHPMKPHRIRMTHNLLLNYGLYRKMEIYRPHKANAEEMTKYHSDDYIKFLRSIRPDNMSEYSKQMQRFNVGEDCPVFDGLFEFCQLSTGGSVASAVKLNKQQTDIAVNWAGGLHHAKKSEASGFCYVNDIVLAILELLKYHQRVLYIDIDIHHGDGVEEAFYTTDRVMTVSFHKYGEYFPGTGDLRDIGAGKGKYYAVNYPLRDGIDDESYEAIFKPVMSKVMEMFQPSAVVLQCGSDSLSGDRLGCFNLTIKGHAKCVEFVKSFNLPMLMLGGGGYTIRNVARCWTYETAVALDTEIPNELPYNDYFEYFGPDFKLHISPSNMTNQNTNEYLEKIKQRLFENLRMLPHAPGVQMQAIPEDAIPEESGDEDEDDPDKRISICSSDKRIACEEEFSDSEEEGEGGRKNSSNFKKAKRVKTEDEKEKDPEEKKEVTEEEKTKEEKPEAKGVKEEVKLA

| Compound | IC50 (Histone deacetylase 1) | IC50 (Histone deacetylase 2) | IC50 (Histone deacetylase 3) | IC50 (Histone deacetylase 8) | IC50 (Histone deacetylase 4) | IC50 (Histone deacetylase 9) | IC50 [1] | inhibition [2] | inhibition [3] |
| --- | --- | --- | --- | --- | --- | --- | --- | --- | --- |
| CN1C(=O)CC(C)(C)c2cc(C(=O)NCCCCCCC(=O)NO)ccc21 | 43 nM | 100 nM | 28 nM | 59 nM | 280 nM | 120 nM | 130 nM | 99% | 50% |
| CC1(C)CC(=O)Nc2ccc(C(=O)NCc3cccc(/C=C/C(=O)NO)c3)cc21 | 670 nM | 100 nM | 210 nM | 200 nM | 2000 nM | 570 nM | 290 nM | 95% | 22% |
| CC1(C)CC(=O)Nc2ccc(C(=O)NCc3ccc(/C=C/C(=O)NO)cc3)cc21 | 66 nM | 22 nM | 65 nM | 49 nM | 380 nM | 37 nM | 110 nM | 98% | 46% |
| Cn1c(=O)ccc2cc(C(=O)NCCCCCCC(=O)NO)ccc21 | 89 nM | 90 nM | 98 nM | 72 nM | 86 nM | 41 nM | 86 nM | 99% | 63% |
| CC1(C)CC(=O)Nc2ccc(C(=O)NC[C@H]3CC[C@@H](/C=C/C(=O)NO)CC3)cc21 | 190 nM | 310 nM | 370 nM | 21 nM | 750 nM | 91 nM | 720 nM | 92% | 22% |
| COc1ccc2cc(C(=O)NCCCCCCC(=O)NO)ccc2n1 | 52 nM | 170 nM | 28 nM | 80 nM | 78 nM | 34 nM | 40 nM | 100% | 70% |

These reach a lower IC50 (Histone deacetylase 1). Values come first.

| IC50 (Histone deacetylase 1) | IC50 (Histone deacetylase 2) | IC50 (Histone deacetylase 3) | IC50 (Histone deacetylase 8) | IC50 (Histone deacetylase 4) | IC50 (Histone deacetylase 9) | IC50 [1] | inhibition [2] | inhibition [3] | Compound |
| --- | --- | --- | --- | --- | --- | --- | --- | --- | --- |
| 41 nM | 25 nM | 87 nM | 24 nM | 330 nM | 50 nM | 530 nM | 97% | 27% | CC1(C)CC(=O)Nc2ccc(C(=O)NC[C@H]3CC[C@@H](CCC(=O)NO)CC3)cc21 |
| 35 nM | 45 nM | 54 nM | 48 nM | 63 nM | 58 nM | 66 nM | 99% | 66% | O=C(CCCCCCC(=O)Nc1ccc2[nH]c(=O)ccc2c1)NO |
| 35 nM | 35 nM | 89 nM | 28 nM | 220 nM | 57 nM | 440 nM | 99% | 43% | CC1(C)CC(=O)Nc2ccc(C(=O)NC[C@H]3CC[C@H](CCC(=O)NO)CC3)cc21 |
| 30 nM | 93 nM | 69 nM | 55 nM | 63 nM | 39 nM | 92 nM | 98% | 44% | CC1(C)CC(=O)Nc2ccc(C(=O)NCCCCCCC(=O)NO)cc21 |
| 24 nM | 25 nM | 180 nM | 73 nM | 280 nM | 46 nM | 280 nM | 100% | 68% | O=C(CCCCCCNC(=O)c1ccc2[nH]c(=O)ccc2c1)NO |
| 24 nM | 20 nM | 85 nM | 53 nM | 120 nM | 35 nM | 430 nM | 98% | 45% | O=C(CCCCCCNC(=O)c1ccc2c(c1)CCC(=O)N2)NO |
| 14 nM | 18 nM | 91 nM | 94 nM | 120 nM | 25 nM | 630 nM | 98% | 51% | O=C(CCCCCCC(=O)Nc1ccc2c(c1)CCC(=O)N2)NO |
| 9.1 nM | 10 nM | 89 nM | 33 nM | 47 nM | 45 nM | 550 nM | 98% | 58% | CC1(C)CC(=O)Nc2ccc(NC(=O)CCCCCCC(=O)NO)cc21 |
| 3.8 nM | 8.2 nM | 15 nM | 6 nM | 58 nM | 5.2 nM | 58 nM | 98% | 55% | CC1(C)CC(=O)Nc2ccc(C(=O)NC[C@H]3CC[C@H](/C=C/C(=O)NO)CC3)cc21 |
